According to PMC5431432, “Low-basicity 5-HT7 Receptor Agonists Synthesized Using the van Leusen Multicomponent Protocol” (Scientific Reports, 2017):

Legend:
[1] = target: T1, D3 (Homo sapiens, UniProt P35462); experiment: Eurofins Cerep binding screen D3; conditions: 10^−6 M; read-out: % Inhibition of control binding D3
T1 construct: Eurofins Cerep (contract screen)

[2] = target: T2, H1 (Homo sapiens, UniProt P35367); experiment: Eurofins Cerep binding screen H1; conditions: 10^−6 M; read-out: % Inhibition of control binding H1
T2 construct: Eurofins Cerep (contract screen)

[3] = target: T3, 5-HT1B (Homo sapiens, UniProt P28222); experiment: Eurofins Cerep binding screen 5-HT1B; conditions: 10^−6 M; read-out: % Inhibition of control binding 5-HT1B
T3 construct: Eurofins Cerep (contract screen)

[4] = system: HepG2 cells; experiment: MTS cytotoxicity assay HepG2; format: cell-based; conditions: 72 h incubation, 0.1–100 μM
Experimental: (§1) The cell line was cultured in Dulbecco’s Modified Eagle’s Medium DMEM (Gibco) with 10% fetal bovine
(§2) The cells were cultured in Modified Eagle’s Medium
(§3) MEM with 100 mg/ml streptomycin and 100 U/ml penicillin, 1%, Non Essential Amino Acids (NEAA) and
(§4) solutions of examined compounds in DMSO were diluted into fresh growth medium and added into the
(§5) microplates at the final concentrations 0.1 μM – 100 μM. The well-known cytostatic compound
(§6) doxorubicin (DX) 1 μM was used as a positive control for both cell lines. Additionally, carbonyl cyanide
(§7) 3-chlorophenylhydrazone (CCCP) 10 μM was used as positive control mitochondrial toxin for hepatocytes.
(§8) Proliferation Assay, Promega) was added to the each well and the cells were incubated under the same
(§9) conditions for 4 h. The absorbance of the samples was measured using a microplate reader (PerkinElmer) at

[5] = Metabolic stability in human liver microsomes; format: in vitro ADME
Experimental: The in vitro evaluation of metabolic stability was performed by using human liver microsomes
(HLMs) (Sigma-Aldrich, St. Louis, MO, USA). The reaction mixtures consisted of 50 μM of tested
compounds with microsomes (1 mg/ml) in 10 mM tris-HCl buffer.
preincubation, the 50 µL of NADPH Regeneration System (Promega, Madison, WI, USA) was
added to initiate the reaction. The reactions were terminated by the addition of the cold methanol
The mixtures were centrifuged
The course of reaction was followed by using the
analyte/IS peak height ratio values.
Mass spectra were recorded on a UPLC-MS/MS system consisted of a Waters ACQUITY® UPLC® (Waters Corporation, Milford, MA, USA) coupled to a Waters TQD mass spectrometer
(electrospray ionization mode ESI-tandem quadrupole). Chromatographic separations were carried
particle size, equipped with Acquity UPLC BEH C18 VanGuard pre-column; 2.1 × 5 mm, and
The column was maintained at 40 °C, and eluted under gradient conditions
acid (0.1%, v/v); eluent B: acetonitrile/formic acid (0.1%, v/v). Chromatograms were made using
sampling rate 20 points/s. MS detection settings of Waters TQD mass spectrometer were as
600 L h−1, cone gas flow 100 L h−1, capillary potential 3.00 kV, cone potential 40 V. Nitrogen was
used for both nebulizing and drying gas. The data were obtained in a scan mode ranging from 50 to
2000 m/z in time 1.0 s intervals. Data acquisition software was MassLynx V 4.1 (Waters). The

[6] = target: human serotonin 5-HT7bR (Homo sapiens, UniProt P34969); experiment: Radioligand binding, [3H]-5-CT displacement; conditions: read-out: K i (5-HT7R)
[7] = system: HEK-293 cells; experiment: MTS cytotoxicity assay HEK-293; format: cell-based, human; conditions: 72 h incubation, 0.1–100 μM
Experimental: as §1, §2, §3, §4, §5, §6, §7, §8, §9

[8] = target: T4, 5-HT5A (Homo sapiens, UniProt P47898); experiment: Eurofins Cerep binding screen 5-HT5A; conditions: 10^−6 M; read-out: % Inhibition of control binding 5-HT5A
T4 construct: Eurofins Cerep (contract screen)

[9] = Water solubility (statement); format: physicochemical
[10] = target: T5, CYP3A4 (Homo sapiens, UniProt P08684); experiment: biochemical
Experimental: (§10) Drug-drug interactions (DDI) – the influence on CYP3A4 activity
(§11) The luminescent CYP3A4 P450-Glo™ assay and protocol were provided by Promega (Madison, WI, USA)
(§12) was obtained from Sigma-Aldrich (St. Louis, USA). The enzymatic reactions were performed in white
(§13) polystyrene, flat-bottom Nunc™ MicroWell™ 96-Well Microplates (Thermo Scientific, Waltham, MA
(§14) USA). The luminescence signal was measured with a microplate reader in luminescence mode (EnSpire,
PerkinElmer, Waltham, MA USA).
The final concentrations of 1e and
to calculate IC50 values.

[11] = target: T6, CB1 (Homo sapiens, UniProt P21554); experiment: Eurofins Cerep binding screen CB1; conditions: 10^−6 M; read-out: % Inhibition of control binding CB1
T6 construct: Eurofins Cerep (contract screen)

[12] = target: T7, 5-HT2B (Homo sapiens, UniProt P41595); experiment: Eurofins Cerep binding screen 5-HT2B; conditions: read-out: % Inhibition of control binding 5-HT2B
T7 construct: Eurofins Cerep (contract screen)

[13] = target: T5, CYP3A4; experiment: in vitro; conditions: CYP3A4 enzyme (Promega P450-Glo luminescent assay)
Experimental: as §10, §11, §12, §13, §14
PerkinElmer, Waltham, MA USA).
The final concentrations of 1e and
to calculate IC50 values.

[14] = system: α1; experiment: Eurofins Cerep binding screen α1; conditions: 10^−6 M
[15] = target: T8, α2C (Homo sapiens, UniProt P18825); experiment: Eurofins Cerep binding screen α2C; conditions: 10^−6 M; read-out: % Inhibition of control binding α2C
T8 construct: Eurofins Cerep (contract screen)
T8 sequence (P18825 1-462): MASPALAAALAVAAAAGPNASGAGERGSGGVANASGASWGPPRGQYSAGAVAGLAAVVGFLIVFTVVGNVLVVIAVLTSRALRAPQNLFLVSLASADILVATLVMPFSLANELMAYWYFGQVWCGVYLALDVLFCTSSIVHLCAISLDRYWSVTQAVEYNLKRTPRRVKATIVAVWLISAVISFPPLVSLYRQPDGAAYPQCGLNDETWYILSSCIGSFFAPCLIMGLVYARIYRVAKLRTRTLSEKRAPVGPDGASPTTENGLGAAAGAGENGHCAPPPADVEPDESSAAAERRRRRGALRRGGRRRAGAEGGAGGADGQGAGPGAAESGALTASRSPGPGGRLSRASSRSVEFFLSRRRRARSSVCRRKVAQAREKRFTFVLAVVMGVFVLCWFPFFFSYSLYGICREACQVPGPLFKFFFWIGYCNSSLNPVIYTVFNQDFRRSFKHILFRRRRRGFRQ

[16] = target: human 5-HT7 receptor (Homo sapiens, UniProt P34969); experiment: Functional assay, cAMP production (TR-FRET) in HEK293 cells overexpressing 5-HT7R; format: cell-based
human 5-HT7 receptor, sequence (P34969 1-432 limits assumed): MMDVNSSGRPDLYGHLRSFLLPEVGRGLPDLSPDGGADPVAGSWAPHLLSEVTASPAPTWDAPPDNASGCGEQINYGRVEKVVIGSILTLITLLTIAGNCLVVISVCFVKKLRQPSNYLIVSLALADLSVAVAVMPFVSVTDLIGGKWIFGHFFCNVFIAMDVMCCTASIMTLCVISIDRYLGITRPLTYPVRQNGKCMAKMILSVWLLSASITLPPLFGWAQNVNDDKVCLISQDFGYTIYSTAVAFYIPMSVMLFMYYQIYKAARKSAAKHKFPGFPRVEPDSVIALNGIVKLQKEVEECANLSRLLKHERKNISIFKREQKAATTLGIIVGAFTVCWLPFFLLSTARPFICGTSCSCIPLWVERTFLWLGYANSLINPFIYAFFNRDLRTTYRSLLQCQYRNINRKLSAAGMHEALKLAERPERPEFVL

T5 sequence (P08684 whole entry): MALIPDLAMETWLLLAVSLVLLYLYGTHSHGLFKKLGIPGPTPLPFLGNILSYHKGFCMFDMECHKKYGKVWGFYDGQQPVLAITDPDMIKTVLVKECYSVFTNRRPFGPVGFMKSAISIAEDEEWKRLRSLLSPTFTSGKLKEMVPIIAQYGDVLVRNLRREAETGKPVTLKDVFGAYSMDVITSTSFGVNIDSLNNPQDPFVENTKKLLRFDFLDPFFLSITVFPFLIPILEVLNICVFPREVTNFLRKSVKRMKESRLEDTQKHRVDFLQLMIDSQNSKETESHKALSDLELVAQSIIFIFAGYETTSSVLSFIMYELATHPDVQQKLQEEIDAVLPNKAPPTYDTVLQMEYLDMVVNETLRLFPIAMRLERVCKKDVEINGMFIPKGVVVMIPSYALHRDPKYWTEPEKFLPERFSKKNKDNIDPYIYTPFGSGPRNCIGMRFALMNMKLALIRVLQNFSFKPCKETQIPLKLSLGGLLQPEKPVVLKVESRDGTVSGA
T7 sequence (P41595 whole entry, species assumed): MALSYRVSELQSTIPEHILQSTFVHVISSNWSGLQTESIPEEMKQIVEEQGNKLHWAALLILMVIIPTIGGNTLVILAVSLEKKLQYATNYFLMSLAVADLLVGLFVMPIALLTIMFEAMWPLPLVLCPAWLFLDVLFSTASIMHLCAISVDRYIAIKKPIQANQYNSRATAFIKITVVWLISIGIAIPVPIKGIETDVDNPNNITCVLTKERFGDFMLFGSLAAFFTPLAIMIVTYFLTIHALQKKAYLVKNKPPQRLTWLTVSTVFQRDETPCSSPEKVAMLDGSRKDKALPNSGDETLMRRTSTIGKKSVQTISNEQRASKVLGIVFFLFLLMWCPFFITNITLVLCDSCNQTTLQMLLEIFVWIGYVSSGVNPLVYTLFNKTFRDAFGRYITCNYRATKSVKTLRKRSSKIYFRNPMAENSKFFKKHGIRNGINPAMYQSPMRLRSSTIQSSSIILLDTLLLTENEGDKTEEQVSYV
T3 sequence (P28222 whole entry, species assumed): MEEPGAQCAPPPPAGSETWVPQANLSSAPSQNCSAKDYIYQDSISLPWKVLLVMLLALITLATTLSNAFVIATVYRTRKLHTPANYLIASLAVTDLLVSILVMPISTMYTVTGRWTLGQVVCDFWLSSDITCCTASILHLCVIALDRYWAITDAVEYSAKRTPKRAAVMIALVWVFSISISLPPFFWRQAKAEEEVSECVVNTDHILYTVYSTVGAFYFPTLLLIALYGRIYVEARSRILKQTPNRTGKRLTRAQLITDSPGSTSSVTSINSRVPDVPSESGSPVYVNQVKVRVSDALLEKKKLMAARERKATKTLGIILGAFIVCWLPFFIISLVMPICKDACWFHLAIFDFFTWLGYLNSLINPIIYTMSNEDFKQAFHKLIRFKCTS
human serotonin 5-HT7bR, sequence (P34969 1-432 limits assumed): as the sequence (P34969 1-432 limits assumed) above
T2 sequence (P35367 whole entry): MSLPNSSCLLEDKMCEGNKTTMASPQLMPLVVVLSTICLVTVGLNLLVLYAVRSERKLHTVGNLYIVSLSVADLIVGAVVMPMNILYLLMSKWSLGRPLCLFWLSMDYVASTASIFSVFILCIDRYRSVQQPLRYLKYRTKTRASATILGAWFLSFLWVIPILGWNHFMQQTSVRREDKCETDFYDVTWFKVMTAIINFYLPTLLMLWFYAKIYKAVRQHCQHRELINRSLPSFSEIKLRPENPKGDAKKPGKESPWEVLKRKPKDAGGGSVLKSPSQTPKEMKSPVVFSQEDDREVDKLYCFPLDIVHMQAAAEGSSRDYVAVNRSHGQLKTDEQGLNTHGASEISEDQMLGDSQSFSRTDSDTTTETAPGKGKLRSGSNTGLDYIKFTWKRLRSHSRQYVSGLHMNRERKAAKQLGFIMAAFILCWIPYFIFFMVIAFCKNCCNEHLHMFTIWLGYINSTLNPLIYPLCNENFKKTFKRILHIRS
T1 sequence (P35462 whole entry): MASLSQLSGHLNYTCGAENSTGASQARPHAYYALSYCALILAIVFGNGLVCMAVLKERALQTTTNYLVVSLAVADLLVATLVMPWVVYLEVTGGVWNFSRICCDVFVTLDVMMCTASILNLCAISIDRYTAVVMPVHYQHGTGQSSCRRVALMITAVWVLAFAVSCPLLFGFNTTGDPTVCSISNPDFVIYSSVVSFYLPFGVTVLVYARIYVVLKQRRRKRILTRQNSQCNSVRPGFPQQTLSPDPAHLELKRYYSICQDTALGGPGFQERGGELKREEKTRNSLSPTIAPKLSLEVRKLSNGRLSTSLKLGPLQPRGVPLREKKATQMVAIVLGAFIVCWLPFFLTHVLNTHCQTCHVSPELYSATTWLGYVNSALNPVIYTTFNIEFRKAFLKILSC
T4 sequence (P47898 whole entry, species assumed): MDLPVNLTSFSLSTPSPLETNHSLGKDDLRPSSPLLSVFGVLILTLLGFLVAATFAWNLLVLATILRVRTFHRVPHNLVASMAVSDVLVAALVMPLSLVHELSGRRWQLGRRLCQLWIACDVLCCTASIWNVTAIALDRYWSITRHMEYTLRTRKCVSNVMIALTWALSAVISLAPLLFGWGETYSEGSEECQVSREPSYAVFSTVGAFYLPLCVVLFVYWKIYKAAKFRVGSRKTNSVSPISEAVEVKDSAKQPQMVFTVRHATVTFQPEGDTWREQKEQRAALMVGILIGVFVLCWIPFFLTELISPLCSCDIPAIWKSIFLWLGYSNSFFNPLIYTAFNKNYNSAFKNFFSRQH
T6 sequence (P21554 whole entry, species assumed): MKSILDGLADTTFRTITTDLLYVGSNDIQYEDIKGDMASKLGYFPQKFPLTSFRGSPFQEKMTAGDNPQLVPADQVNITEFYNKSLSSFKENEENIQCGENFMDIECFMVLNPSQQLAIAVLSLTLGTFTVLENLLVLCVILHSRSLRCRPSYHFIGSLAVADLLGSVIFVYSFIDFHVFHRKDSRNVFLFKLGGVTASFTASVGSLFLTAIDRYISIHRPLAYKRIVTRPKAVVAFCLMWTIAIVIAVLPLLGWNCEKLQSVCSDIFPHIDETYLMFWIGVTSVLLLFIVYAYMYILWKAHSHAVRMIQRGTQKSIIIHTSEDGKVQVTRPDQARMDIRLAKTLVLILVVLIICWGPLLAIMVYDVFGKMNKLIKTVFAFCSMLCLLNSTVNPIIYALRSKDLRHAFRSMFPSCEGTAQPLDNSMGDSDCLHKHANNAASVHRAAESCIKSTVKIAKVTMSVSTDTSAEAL

For CCn1cncc1-c1c[nH]c2ccc(OC)cc12.Cl [1e, 3-(1-Ethyl-1H-imidazol-5-yl)-5-methoxy-1H-indole hydrochloride], the inhibition at 1 µM [1] was 8%, the inhibition at 1 µM [2] was 6% and the inhibition at 1 µM [3] was 24%. The “cell viability in words, HepG2” value [4] was “the cells remained viable in all tested concentrations”, the main metabolic pathway ([5]; MS of metabolite M1) was “hydroxylation” and the CLint scaled at 50 μM ([5]; human, read-out: Clint, metabolic clearance) was 3.69 mL/min/kg. For the same compound, the Ki [6] was 0.03 µM, the “cell viability in words, HEK-293” value [7] was “the cells remained viable in all tested concentrations” and the inhibition at 1 µM [8] was 9%. For the same compound, the “water solubility in words” value [9] was “water soluble”, the IC50 [10] was 0.27 µM and the inhibition at 1 µM [11] was 8%. It also gave an inhibition at 1 µM ([12]; 10^−6 M (1 µM)) of 93%, an inhibition at 0.01 µM ([12]; 10^−8 M (10 nM)) of 6% and an IC50 [13] of 0.24 µM. The “% Inhibition of control binding α1” value [14] was 5%, the inhibition at 1 µM [15] was 9% and the “function at the human 5-HT7 receptor” value [16] was “full agonists”. For the same compound, the EC50 ([16]; hydrochloride salts) was 0.06 µM.
